Laboratory results from ChEMBL document CHEMBL1149727, “Sesquiterpenes from clove (Eugenia caryophyllata) as potential anticarcinogenic agents” (1992).

How the values were obtained:
[1] = test system: Mus musculus; assay: Ratio of drug to control in induction of cytosolic Glutathione S-transferase activity per mg of protein in A/J mouse forestomach at 20 mg, po for once every 2 days for total three doses measured after 24 hrs of last dose; type: functional, Stomach
[2] = test system: Mus musculus; assay: Induction of cytosolic Glutathione S-transferase activity per mg of protein in A/J mouse liver at 20 mg, po for once every 2 days for total three doses measured after 24 hrs of last dose; type: functional
[3] = test system: Mus musculus; assay: Ratio of drug to control in induction of cytosolic Glutathione S-transferase activity per mg of protein in A/J mouse small bowel mucosa at 20 mg, po for once every 2 days for total three doses measured after 24 hrs of last dose; type: functional
[4] = test system: Mus musculus; assay: Ratio of drug to control in induction of cytosolic Glutathione S-transferase activity per mg of protein in A/J mouse liver at 20 mg, po for once every 2 days for total three doses measured after 24 hrs of last dose; type: functional
[5] = test system: Mus musculus; assay: Induction of cytosolic Glutathione S-transferase activity per mg of protein in A/J mouse forestomach at 20 mg, po for once every 2 days for total three doses measured after 24 hrs of last dose; type: functional, Stomach
[6] = test system: Mus musculus; assay: Induction of cytosolic Glutathione S-transferase activity per mg of protein in A/J mouse small bowel mucosa at 20 mg, po for once every 2 days for total three doses measured after 24 hrs of last dose; type: functional

| Compound | Ratio [1] | Activity [2] [µmol/min] | Ratio [3] | Ratio [4] | Activity [5] [µmol/min] | Activity [6] [µmol/min] |
| --- | --- | --- | --- | --- | --- | --- |
| C=C1CC[C@@H]2O[C@]2(C)CC[C@@H]2[C@@H]1CC2(C)C | 0.95 | 2.13 | 4.8 | 2.88 | 0.59 | 1.2 |
| C/C1=C\CC[C@@]2(C)O[C@@H]2CC(C)(C)/C=C/C1 | 1.24 | 1.54 | 3.24 | 2.08 | 0.77 | 0.81 |
| C/C1=C\CC/C(C)=C/CC(C)(C)/C=C/C1 [ALPHA-HUMULONE] | 1.02 | 1.47 | 2.52 | 1.99 | 0.63 | 0.63 |
| C=C1CC/C=C(\C)CC[C@@H]2[C@@H]1CC2(C)C [BETA-CARYOPHYLLENE] | 1.24 | 1.92 | 3 | 2.59 | 0.77 | 0.75 |
| C=CCc1ccc(O)c(OC)c1 [EUGENOL] | 1.21 | 0.93 | 2.36 | 1.26 | 0.75 | 0.59 |
